Blank lines part the entries; values can stand above or below the molecule they belong to.
Tests used:
[1] = tested on: myeloma tumor; details: cited from earlier work
[2] = tested on: rheumatoid arthritis model; details: cited from earlier work
[3] = target: T1, murine IRE1α (Mus musculus, UniProt Q9EQY0, N772Y); experiment: biochemical; details: IC50 IRE1α RNase activity, naphthol analogue series, average n=4 +/- s.d.
[4] = target: T2, yeast IRE1 (Saccharomyces cerevisiae, UniProt P32361, DEL869-892); experiment: IRE1 RNase activity, real time fluorescence readout assay; assay type: biochemical; details: RNase inhibition
T2 sequence (P32361 with tags, fused parts or gaps DEL869-892): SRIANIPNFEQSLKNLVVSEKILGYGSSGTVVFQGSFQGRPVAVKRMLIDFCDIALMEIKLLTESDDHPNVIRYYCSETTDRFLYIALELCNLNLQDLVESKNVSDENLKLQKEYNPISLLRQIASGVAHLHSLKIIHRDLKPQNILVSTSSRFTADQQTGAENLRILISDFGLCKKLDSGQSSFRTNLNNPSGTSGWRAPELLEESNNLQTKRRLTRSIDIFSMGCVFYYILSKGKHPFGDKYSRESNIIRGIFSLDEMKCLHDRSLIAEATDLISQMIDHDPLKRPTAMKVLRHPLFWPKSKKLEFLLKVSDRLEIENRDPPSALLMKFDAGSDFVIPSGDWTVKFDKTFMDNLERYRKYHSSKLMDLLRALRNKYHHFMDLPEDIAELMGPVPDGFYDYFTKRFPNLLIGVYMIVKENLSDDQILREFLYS

[5] = target: IRE1α auto-kinase activity (Mus musculus, UniProt Q9EQY0, N772Y); experiment: IRE1α auto-kinase; assay type: biochemical, murine
Chain of IRE1α auto-kinase activity (Q9EQY0 499-977 N772Y): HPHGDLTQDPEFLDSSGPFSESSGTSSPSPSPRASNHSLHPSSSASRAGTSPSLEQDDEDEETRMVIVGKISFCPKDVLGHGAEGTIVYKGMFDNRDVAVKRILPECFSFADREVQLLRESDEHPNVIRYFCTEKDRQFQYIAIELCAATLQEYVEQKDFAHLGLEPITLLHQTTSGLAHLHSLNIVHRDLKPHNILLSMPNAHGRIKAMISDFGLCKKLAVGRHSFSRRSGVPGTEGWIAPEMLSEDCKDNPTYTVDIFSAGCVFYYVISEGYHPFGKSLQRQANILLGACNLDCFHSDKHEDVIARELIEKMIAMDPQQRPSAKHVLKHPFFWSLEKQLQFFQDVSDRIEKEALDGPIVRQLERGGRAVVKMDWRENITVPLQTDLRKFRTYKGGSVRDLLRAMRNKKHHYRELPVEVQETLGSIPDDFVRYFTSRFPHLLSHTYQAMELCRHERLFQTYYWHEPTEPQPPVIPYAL

[6] = tested on: XBP1 mRNA splicing (IRE1α); experiment: XBP1 mRNA splicing in RPMI 8226 plasmacytoma cells; assay type: cell-based, human
[7] = tested on: CD59 mRNA (RIDD target); experiment: CD59; assay type: cell-based, human; details: 10 μM
[8] = target: murine IRE1α Phe889Ala (Mus musculus, UniProt Q9EQY0, F889A/N772Y); experiment: Direct binding by micro-scale thermophoresis; details: Kd (avg), average
Chain of murine IRE1α Phe889Ala (Q9EQY0 499-977 N772Y/F889A): as the sequence (Q9EQY0 499-977 N772Y) above, with F391A counted along it

[9] = target: murine IRE1α Tyr892Ala (Mus musculus, UniProt Q9EQY0, N772Y/Y892A); experiment: Direct binding by micro-scale thermophoresis; details: Kd (avg), average
Chain of murine IRE1α Tyr892Ala (Q9EQY0 499-977 N772Y/Y892A): as the sequence (Q9EQY0 499-977 N772Y) above, with Y394A counted along it

[10] = target: murine IRE1α Asn906Leu (Mus musculus, UniProt Q9EQY0, N772Y/N906L); experiment: Direct binding by micro-scale thermophoresis; details: Kd (avg), average
Chain of murine IRE1α Asn906Leu (Q9EQY0 499-977 N772Y/N906L): as the sequence (Q9EQY0 499-977 N772Y) above, with N408L counted along it

[11] = target: murine IRE1α His910Ala (Mus musculus, UniProt Q9EQY0, H910A/N772Y); experiment: Direct binding by micro-scale thermophoresis; details: Kd (avg), average
Chain of murine IRE1α His910Ala (Q9EQY0 499-977 N772Y/H910A): as the sequence (Q9EQY0 499-977 N772Y) above, with H412A counted along it

[12] = target: T3, murine IRE1α Lys907Ala (Mus musculus, UniProt Q9EQY0, K907A/N772Y); experiment: Direct binding by micro-scale thermophoresis
T3 sequence (Q9EQY0 499-977 N772Y/K907A): as the sequence (Q9EQY0 499-977 N772Y) above, with K409A counted along it

[13] = target: T3, murine IRE1α Lys907Ala; experiment: Gel based RNase cleavage assay with dual-hairpin RNA substrate; assay type: biochemical; details: 100 μM IRE1α, 60 μM dual hairpin substrate
[14] = target: murine IRE1α auto-kinase activity (Mus musculus, UniProt Q9EQY0, N772Y); experiment: Auto-phosphorylation kinase assay with P32-γ-ATP; assay type: biochemical; details: read-out: IC50 (avg) auto-kinase activity of murine IRE1α; 10 minute time point; n=2
Chain of murine IRE1α auto-kinase activity (Q9EQY0 499-977 N772Y): as the sequence (Q9EQY0 499-977 N772Y) above

[15] = target: T1, murine IRE1α; experiment: Oligomerization status by velocity analytical ultracentrifugation; details: ADP 500 μM, JAK inhibitor I 30 μM
[16] = target: T2, yeast IRE1; details: cited from earlier work

T1 sequence (Q9EQY0 499-977 N772Y): as above

Molecule: CN1CCN(C(=O)c2ccc(-c3ccc4c(C=O)c(O)ccc4c3)s2)CC1 [MKC3946, 2-Hydroxy-6-[5-(4-methyl-piperazine-1-carbonyl)-thiophen-2-yl]-naphthalene-1-carbaldehyde]
- Myeloma tumor growth [1]: reduced myeloma tumor growth
- Splicing of XBP1 mRNA in tissues and tumors [1]: inhibited the splicing of XBP1 mRNA in tissues and tumors
- Tolerability in vivo [1]: readily tolerated with high exposure

Molecule: Cc1cc(=O)oc2c(C=O)c(O)ccc12 [4μ8C]
- XBP1s, inflammatory cytokines and inflammation [2]: effective in suppressing

Molecule: JAK inhibitor I
- IC50 [14]: 1100 nM
- Effect on concentration dependent oligomerization of IRE1α [15]: enhanced
- Effect on dimerization/oligomerization of yeast IRE1 and its RNase activity [16]: promoted

More lines, main results first:

- IC50 [3]: 0.39 µM
Molecule: O=Cc1c(O)ccc2ccc(Br)cc12 [MKC3987, 7-Bromo-2-hydroxy-naphthalene-1-carbaldehyde]

- Resistance of yeast IRE1 relative to IRE1α [4]: ~ 100 fold
- IC50 [5]: > 10 µM
- EC50 ([6]; Homo sapiens, RPMI-8226, read-out: EC50 (avg) XBP1 splicing): 330 nM
- Kd [8]: 10.9 µM
- Kd [9]: 10 µM
- Kd [10]: 8.9 µM
- Kd [11]: 5.3 µM
- Binding to IRE1α Lys907Ala [12]: abolished detectable binding
- Sensitivity of RNase activity to inhibitor [13]: insensitive
Molecule: COCCOCCc1c(C)c2cc(OC)c(O)c(C=O)c2oc1=O [MKC9989, 7-Hydroxy-6-methoxy-3-(2-(2-methoxyethoxy)ethyl)-4-methyl-2-oxo-2H-chromene-8-carbaldehyde]
- Inhibition of basal and thapsigargin induced splicing of XBP1 mRNA ([6]; 10 μM compound, 1 μM thapsigargin, RPMI 8226): completely inhibited
- CD59 mRNA level ([7]; administered 2 hour post treatment with thapsigargin): moderately stabilized
- CD59 mRNA level ([7]; co-administered with thapsigargin relative to thapsigargin alone): markedly stabilized
- CD59 mRNA level ([7]; non-stressed cells): modestly increased

- IC50 [3]: 5.7 µM
Molecule: CN1CCN(C(=O)c2ccc(-c3ccc4ccc(O)c(C=O)c4c3)cc2)CC1 [MKC4027, 2-Hydroxy-7-[4-(4-methyl-piperazine-1-carbonyl)-phenyl]-naphthalene-1-carbaldehyde]

Reference: publication PMC4486471 (Nature communications, 2014)
